# Test results reported in US20140377289A1, “Metallodrugs Having Improved Pharmacological Properties, and Methods of Manufacture and Use Thereof” (MetalloPharm, LLC, priority 2011, published 2014).
# Read-outs that look alike come from different tables or passages of the source. Where a SMILES comes first, the peptide text is derived from it. [ ]: non-standard residue; d: D form. Cha = N[C@@H](CC1CCCCC1)C(=O)O
# Legend:
# HCV protease = HCV protease (Hepatitis C virus genotype 1a, UniProt P27958); assay: biochemical; format: binding
# Source text: This stems from the relationship between affinity and the on/off rate constants for binding (KA=kon/koff), where higher affinity binding is promoted by larger kon and/or smaller koff values. By contrast, efficient catalytic turnover requires koff values that are preferably no smaller than the rate constant for the inactivation chemistry (kcat), to ensure the availability of metallodrug catalyst for new target molecules, and will be best promoted by relatively high values for both kon and koff, which will result in weaker KA values.
# Apparent binding affinities and rates of inactivation for HCV protease by several metallopeptide derivatives incorporating a Cu-GGH metal binding domain and C-terminal HCV protease targeting peptides were prepared and their affinity and reactivity were evaluated under in the presence of various redox reagents. Affinities lay within the range of 10^4M^−1 and 5×10^8 M^−1.
# pUC19 plasmid DNA = assay: DNA nicking and linearization nuclease assay; format: biochemical; conditions: 10 μM base pairs pUC19, ascorbate/peroxide; for klin for DNA linearization, without attached Rev (M-chelate) / knick for DNA nicking, without attached Rev (M-chelate): — = Below detection limit; for klin for DNA linearization, with attached Rev (M-chelate-REV) / knick for DNA nicking, with attached Rev (M-chelate-REV): 100 nM M-chelate-Rev
# [1] = test system: HCV RNA replicon in ET (luc-ubi-neo/ET) Huh7 cells; conditions: read-out: antiviral IC50; 72 h, replicon-derived Luc activity
# in vitro = conditions: human
# [2] = test system: stem loop IIb HCV IRES RNA; format: biochemical, hepatitis C virus (HCV)
# Procedure: HCV IRES RNA cleavage was monitored in vitro by fluorescence using 5′ fluorescein end-labeled RNA with excitation and emission wavelengths of 485 nm and 518 nm, respectively. Reactions were carried out in reaction volumes of 100 μl in the presence of 1 mM ascorbate and 1 mM H2O2 in 20 mM HEPES buffer (pH=7.4), 100 mM NaCl with 100 nM of the catalyst and analyzed according to the change in fluorescence observed as the reaction occurred. Both a time-dependence and a concentration-dependence of RNA substrate were observed. The initial velocities were fit to a line using Origin 7.0 software and kobs obtained. These values were then used to obtain the Michaelis-Menten parameters.
# The reactivity of select catalytic metallodrugs was investigated by Michaelis-Menten profiles. Reaction chemistry was followed by monitoring the fluorescence change of 5′-fluorescein-labeled RNA as a function of time. Initial velocities were measured as a function of substrate (RNA) concentration to generate a standard Michaelis-Menten plot (FIG. 2).
# [3] = test system: ET (luc-ubi-neo/ET) Huh7 human hepatoma cell line; conditions: read-out: cytotoxicity TC50; 72 h, CytoTox-1 colorimetric assay
# [4] = molecular target: stem-loop IIb of HCV IRES RNA; format: binding, hepatitis C virus (HCV)
# Procedure: RNA was purchased from Dharmacon, part of Thermo Fisher Scientific (Lafayette, Colo.). Peptides were purchased from Genemed Synthesis Inc (South San Francisco, Calif.) with C-terminal amidation. The stem-loop (SL) structure (from Lytle et al., RNA 13: 539-48, 2002) is depicted in FIG. 6. The sequence for the IRES SL IIb RNA used was 5′-Fluorescein-[…]-3′, and for the IRES SL IV RNA was 5′-Fluorescein-[…]-3′. All RNA was annealed by heating to 95° C. and then cooled slowly to room temperature before use.
# RNA binding experiments were performed in the presence of 84 nM GGHYrFK-amide in 20 mM HEPES (pH 7.4), 100 mM NaCl. For GGHYrFK-amide, serial additions of unlabeled IRES RNA were added and tyrosine emission was monitored (λex=280 nm, λem=313 nm). Binding data for GGHYr[…]-amide and GGHYr[…]-amide were obtained by adding serial additions of peptide to 5′-fluorescein labeled IRES SLIIb and monitoring at 518 nm (Ex=485 nm). Data was then fit to a one-site binding model.
# HIV RRE RNA (AP-RRE RNA) = format: binding; conditions: for Kd: 37° C., pH 7.4
# Procedure: Determination of Dissociation Constants. […] A 660 μL volume of 100 nM AP-RRE RNA was first heated to 90° C. for 5 min and then allowed to cool to, but not below, the titration temperature (37° C.). A 650 μL volume of this sample was added to the pre-thermostatted cuvette. After 10 min of temperature equilibration a solution of 5 μM M-chelate-Rev complex was titrated into the solution. After each addition, 100 μL of the solution was mixed by gentle pipeting to ensure complete mixing. The fluorescence change associated with the change of environment of the aminopurine label was monitored following peptide binding. Titration response curves were dilution and background corrected and normalized to initial intensity values. Curves were fit to a biphasic equation (4) for two independent binding sites where Fobs is the total observed fluorescence intensity, P0 is the total concentration of added M-chelate-Rev, F0, F1, and F2 are fitting parameters corresponding to the intensities of the unbound, singly-bound, and doubly-bound AP-RNA, respectively, R0 is the initial concentration of AP-RNA, and KD1 and KD2 are dissociation constants for binding at the high- and low-affinity sites, respectively. All binding experiments were performed in a binding buffer composed of 20 mM HEPES, 100 mM NaCl, pH 7.4.
# [5] = test system: 5′ fluorescein end-labeled RRE stem IIB RNA (Fl-RNA); assay: PAGE analysis of RRE RNA cleavage kinetics; format: biochemical, HIV; conditions: 100 nM complex, 100 nM Fl-RNA, 1 mM H2O2, 1 mM ascorbate, 37° C.; initial rate
# Procedure: PAGE Analysis of RRE RNA Cleavage Kinetics. Reactions of 100 nM metal-chelate-Rev (1:1.2 M:chelate ratio), 1 mM H2O2, 1 mM ascorbate, and 100 nM 5′ fluorescein end-labeled RRE stem IIB RNA (Fl-RNA) were conducted at 37° C. in separate tubes, each containing 20 μL total reaction volume—one tube corresponding to one gel lane. A buffer consisting of 20 mM HEPES, 100 mM NaCl, pH 7.4 was used in all experiments. Fl-RNA was heated to 90° C. and allowed to cool to, but not below 37° C. prior to reaction, and the Fl-RNA was immediately added to each pre-incubated tube. Reactants were added to pre-incubated tubes at time-points corresponding to the beginning of each reaction, which were performed in a dark incubator. Reaction start times were staggered and all reactions were quenched at the same time by addition of a quenching/gel-loading buffer solution (80 μL/tube) consisting of standard 1× tris-EDTA-acetic acid buffer, 8M urea, 20 mM HEPES, 100 mM NaCl. The tubes were then heated to 90° C. for 5 min and a 5 μL aliquot from each tube was then loaded into its corresponding lane of a 10% polyacrylamide 8 M urea gel, resulting in […] Fl-RNA per lane. Gel electrophoresis was performed at 250 V for 1.5 h. Gels were analyzed on a GE Typhoon variable mode imager using 488 nm excitation and a 526 nm single pass emission filter. Bands were quantified with the program ImageQuant. Loss of initial Fl-RNA reactant bands were fit to a first-order reaction equation using the software Origin, and observed rate constants and initial rates were determined. Control reactions with respective metal-chelates lacking the Rev domain were conducted in the same manner.
# [6] = test system: AP-RNA (aminopurine-labeled RRE RNA); assay: Reaction kinetics monitored by real-time fluorimetry, AP-RNA; format: biochemical, HIV; conditions: 100 nM complex, 100 nM AP-RNA, 1 mM H2O2, 1 mM ascorbate, 37° C.; initial rate
# Procedure: Reaction Kinetics Monitored by Real-Time Fluorimetry. Reactions of 100 nM metal-chelate-Rev (1:1.2 M:chelate ratio), 1 mM H2O2, 1 mM ascorbate, and 100 nM AP-RNA were conducted at 37° C. in a fluorescence cuvette in a Varian Cary Eclipse fluorescence spectrophotometer. Reactions were monitored using excitation at 310 nm (SW=10 nm) and emission at 371 nm (SW=10 nm). Prior to reaction the AP-RNA was pre-heated to 90° C. for 5 min and then added to the pre-warmed 37° C. cuvette. The metal-chelate-Rev complexes were added after 5 min, and reactions were initiated by the addition of H2O2 and ascorbate after an additional 10 min. Each resulting fluorescence trace was fit to a first-order reaction equation using the software Origin, and observed rate constants and initial rates were determined; the magnitude of fluorescence change that corresponded to complete reaction was established by averaging the magnitudes of fluorescence change from many trials known to react to completion. All concentrations and buffer were identical to those used in the PAGE analysis assay with Fl-RNA. Control reactions with respective metal-chelates lacking the Rev domain were conducted in the same manner.
# [7] = Michaelis-Menten, stem-loop IIb RNA as substrate
# [8] = high-affinity RRE RNA site, read-out: KD1
# [9] = low-affinity RRE RNA site, read-out: KD2
# Sequence of HCV protease (P27958 1027-1208, other chains not shown): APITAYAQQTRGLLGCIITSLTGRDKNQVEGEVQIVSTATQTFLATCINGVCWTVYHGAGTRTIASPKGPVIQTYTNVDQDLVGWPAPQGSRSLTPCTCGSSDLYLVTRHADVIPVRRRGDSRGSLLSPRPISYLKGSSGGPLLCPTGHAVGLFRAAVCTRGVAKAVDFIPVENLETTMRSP
Molecule,IC50 [1] [nM],CC50 [3] [nM],KA1 (HIV RRE RNA (AP-RRE RNA); high-affinity RRE RNA site),Kd (HIV RRE RNA (AP-RRE RNA); [8]) [nM],KA2 (HIV RRE RNA (AP-RRE RNA); low-affinity RRE RNA site),Kd (HIV RRE RNA (AP-RRE RNA); [9]) [nM],"klin for DNA linearization, with attached Rev (M-chelate-REV) (pUC19 plasmid DNA) [min⁻¹]","knick for DNA nicking, with attached Rev (M-chelate-REV) (pUC19 plasmid DNA) [min⁻¹]",Fl-RNA Cleavage Rate [5] [nM/min],AP-RNA Modification Rate [6] [nM/min],further results
CC[C@H](C)[C@H](NC(=O)[C@H](CC(C)C)NC(=O)[C@@H](CCC(=O)O)NC(=O)[C@H](CC(=O)O)NC(=O)CNC(=O)[C@H](Cc1c[nH]cn1)NC(=O)CNC(=O)CN)C(=O)N[C@@H](CC1CCCCC1)C(=O)N[C@@H](CS)C(=O)O [Cu-GGHGDeLI(Cha)C—CO2^−] (H-GGHGD[dE]LI[Cha]C-OH),–,–,–,–,–,–,–,–,–,–,Kd (HCV protease): 500 nM; Ki (HCV protease): ~500 nM; KA (HCV protease; apparent binding affinity): ~2e+06 M⁻¹
O=C([O-])CN(CC(=O)[O-])CC(=O)[O-].[Fe+3] [Fe-NTA],–,–,–,–,–,–,–,–,–,–,"klin for DNA linearization, without attached Rev (M-chelate) (pUC19 plasmid DNA): 0.0008 ± 0.0002 min⁻¹; knick for DNA nicking, without attached Rev (M-chelate) (pUC19 plasmid DNA): 0.05 ± 0.01 min⁻¹"
O=C(O)CN(CCN(CC(=O)O)CC(=O)O)CC(=O)O.[Ni] [Ni-EDTA],–,–,–,–,–,–,–,–,–,–,"klin for DNA linearization, without attached Rev (M-chelate) (pUC19 plasmid DNA): 0.00019 ± 0.00002 min⁻¹; knick for DNA nicking, without attached Rev (M-chelate) (pUC19 plasmid DNA): 0.037 ± 0.002 min⁻¹"
"N=C(N)NCCC[C@@H](NC(=O)[C@@H](N)Cc1ccc(O)cc1)C(=O)N[C@@H](Cc1ccccc1)C(=O)N[C@@H](CCCCN)C(N)=O [YrFK, reference compound]",> 100000,–,–,–,–,–,–,–,–,–,CC50 at 72 h (in vitro): > 100000 nM
"Cu complex of ATCUN peptide GGHYrFK, C-terminal amidated; targets stem-loop IIb of HCV IRES RNA [Cu-GGHYrFK-amide]",580,> 100000,–,–,–,–,–,–,–,–,"Km [2, 7]: 0.85 µM; kcat [2, 7]: 0.00883 s⁻¹; Vmax ([2]; cleavage of stem-loop IIb, 100 nM catalyst, 1 mM ascorbate, 1 mM H2O2): 1.71 RFU/min; turnover number ([2]; stem-loop IIb RNA as substrate): 32; Kd ([4]; change in tyrosine emission at 313 nm): 44 ± 2 nM; KA ([4]; stem-loop IIb): 2.27e+07 M⁻¹"
"Cu complex of DOTA coupled to K-Rev, Ac-KTRQARRNRRRRWRERQR-NH2 [Cu-DOTA-Rev]",–,–,25 10^8 M^−1,0.4 ± 0.1,0.02 10^8 M^−1,488 ± 9,0.0025 ± 0.0008,0.043 ± 0.007,0.8 ± 0.1,2.8 ± 0.1,–
"Cu complex of GGH-Rev, GGHTRQARRNRRRRWRERQR-NH2 [Cu-GGH-Rev]",–,–,25 10^8 M^−1,4.6 ± 0.5,0.028 10^8 M^−1,363 ± 9,0.0013 ± 0.0001,0.069 ± 0.006,0.045 ± 0.005,0.4 ± 0.3,–
"Cu complex of KGHK-Rev, KGHKTRQARRNRRRRWRERQR-NH2 [Cu-KGHK-Rev]",–,–,7.7 10^8 M^−1,1.3 ± 0.5,0.066 10^8 M^−1,148 ± 5,0.0062 ± 0.0006,0.17 ± 0.04,0.060 ± 0.005,0.511 ± 0.003,–
Cu-GGHAALEAKICHQIEYYFGDF,3460,41100,–,–,–,–,–,–,–,–,–
Cu-GGHGAALEAKICHQIEYYFGDF,6250,52000,–,–,–,–,–,–,–,–,–
